Laboratory results from patent publication US8969583B2, “3-phenyl-5-ureidoisothiazole-4-carboximide and 3-amino-5-phenylisothiazole derivatives as kinase inhibitors” (Allergan, Inc., priority 2011, dated 2015).

How the values were obtained:
[1] = target: VEGFR2 (purified cytoplasmic domain KDR protein) (Homo sapiens (Human), UniProt P35968); assay: VEGFR2 Kinase Assay (biochemical KDR kinase assay, ELISA); conditions: 2.7 μM ATP, 15 minute incubation at 30° C.; read-out: VEGFR2 Enzyme Assay (IC50 nM)
Description: Biochemical KDR kinase assays were performed in 96 well microtiter plates that were coated overnight with 75 μg/well of poly-Glu-Tyr (4:1) in 10 mM Phosphate Buffered Saline (PBS), pH 7.4. The coated plates were washed with 2 mls per well PBS+0.05% Tween-20 (PBS-T), blocked by incubation with PBS containing 1% BSA, then washed with 2 mls per well PBS-T prior to starting the reaction. […] Reactions were initiated by the addition 20 ul per well of kinase buffer containing 200-300 ng purified cytoplasmic domain KDR protein (BPS Bioscience, San Diego, Calif.). Following a 15 minute incubation at 30° C., the reactions were washed 2 mls per well PBS-T. 100 μl of a monoclonal anti-phosphotyrosine antibody-peroxidase conjugate diluted 1:10,000 in PBS-T was added to the wells for 30 minutes. Following a 2 mls per well wash with PBS-Tween-20, 100 μl of O-Phenylenediamine Dihydrochloride in phosphate-citrate buffer, containing urea hydrogen peroxide, was added to the wells for 7-10 minutes as a colorimetric substrate for the peroxidase. The reaction was terminated by the addition of 100 μl of 2.5NH2SO4 to each well and read using a microplate ELISA reader set at 492 nm. IC50 values for compound inhibition were calculated directly from graphs of optical density (arbitrary units) versus compound concentration following subtraction of blank values.

[2] = target: PDGFRβ (purified cytoplasmic domain PDGFR-b protein) (Homo sapiens (Human), UniProt P09619); assay: PDGFRβ Kinase Assay (biochemical, ELISA); conditions: 36 μM ATP, 60 minute incubation at 30° C.; read-out: PDGFRβ Enzyme Assay (IC50 nM)
Description: Biochemical PDGFRβ kinase assays were performed in 96 well microtiter plates that were coated overnight with 75 μg of poly-Glu-Tyr (4:1) in 10 mM Phosphate Buffered Saline (PBS), pH 7.4. The coated plates were washed with 2 mls per well PBS+0.05% Tween-20 (PBS-T), blocked by incubation with PBS containing 1% BSA, then washed with 2 mls per well PBS-T prior to starting the reaction. Reactions were carried out in 100 μL reaction volumes containing 36 μM ATP in kinase buffer (50 mM Hepes buffer pH 7.4, 20 mM MgCl2, 0.1 mM MnCl2 and 0.2 mM Na3VO4). Test compounds were reconstituted in 100% DMSO and added to the reaction to give a final DMSO concentration of 5%. Reactions were initiated by the addition 20 ul per well of kinase buffer containing 200-300 ng purified cytoplasmic domain PDGFR-b protein (Millipore). Following a 60 minute incubation at 30° C., the reactions were washed 2 mls per well PBS-T. 100 μl of a monoclonal anti-phosphotyrosine antibody-peroxidase conjugate diluted 1:10,000 in PBS-T was added to the wells for 30 minutes. Following a 2 mls per well wash with PBS-Tween-20, 100 μl of O-Phenylenediamine Dihydrochloride in phosphate-citrate buffer, containing urea hydrogen peroxide, was added to the wells for 7-10 minutes as a colorimetric substrate for the peroxidase. The reaction was terminated by the addition of 100 μl of 2.5NH2SO4 to each well and read using a microplate ELISA reader set at 492 nm. IC50 values for compound inhibition were calculated directly from graphs of optical density (arbitrary units) versus compound concentration following subtraction of blank values.

VEGFR1 = VEGFR1 (Homo sapiens (Human), UniProt P17948); assay: VEGFR1 Enzyme Assay; assay type: biochemical
Sequence of VEGFR1 (P17948 27-1338, species assumed): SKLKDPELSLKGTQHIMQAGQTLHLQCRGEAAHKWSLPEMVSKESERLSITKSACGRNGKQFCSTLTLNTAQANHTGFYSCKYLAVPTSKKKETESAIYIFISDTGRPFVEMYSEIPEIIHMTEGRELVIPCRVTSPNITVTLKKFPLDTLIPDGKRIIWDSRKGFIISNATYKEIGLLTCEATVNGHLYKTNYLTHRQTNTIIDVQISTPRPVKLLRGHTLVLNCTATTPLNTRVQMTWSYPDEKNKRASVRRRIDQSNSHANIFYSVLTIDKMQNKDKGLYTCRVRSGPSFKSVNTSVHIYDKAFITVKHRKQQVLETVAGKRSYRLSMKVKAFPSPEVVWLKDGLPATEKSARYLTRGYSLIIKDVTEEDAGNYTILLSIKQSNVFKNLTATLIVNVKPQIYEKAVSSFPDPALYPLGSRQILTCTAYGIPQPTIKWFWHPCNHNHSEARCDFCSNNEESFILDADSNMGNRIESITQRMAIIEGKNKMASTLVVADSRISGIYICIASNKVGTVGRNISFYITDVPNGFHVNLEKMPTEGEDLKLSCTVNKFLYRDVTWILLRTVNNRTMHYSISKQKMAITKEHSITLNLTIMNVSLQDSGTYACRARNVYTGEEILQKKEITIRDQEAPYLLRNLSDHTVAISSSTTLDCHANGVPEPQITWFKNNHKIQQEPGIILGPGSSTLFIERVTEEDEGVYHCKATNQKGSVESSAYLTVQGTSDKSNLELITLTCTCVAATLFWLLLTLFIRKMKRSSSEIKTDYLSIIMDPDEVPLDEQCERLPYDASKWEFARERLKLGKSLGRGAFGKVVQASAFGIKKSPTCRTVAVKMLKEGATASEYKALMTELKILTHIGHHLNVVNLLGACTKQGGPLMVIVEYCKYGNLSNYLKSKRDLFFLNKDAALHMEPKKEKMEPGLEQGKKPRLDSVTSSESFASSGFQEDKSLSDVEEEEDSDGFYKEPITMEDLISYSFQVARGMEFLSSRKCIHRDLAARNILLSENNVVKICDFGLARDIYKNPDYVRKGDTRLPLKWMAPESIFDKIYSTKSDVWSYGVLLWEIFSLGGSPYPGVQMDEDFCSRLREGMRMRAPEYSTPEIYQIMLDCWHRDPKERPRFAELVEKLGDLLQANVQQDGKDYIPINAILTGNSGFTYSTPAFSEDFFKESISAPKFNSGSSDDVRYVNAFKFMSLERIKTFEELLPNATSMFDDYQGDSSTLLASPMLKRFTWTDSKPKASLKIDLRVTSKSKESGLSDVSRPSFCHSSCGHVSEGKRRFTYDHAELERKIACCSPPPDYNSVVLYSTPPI

Sequence of VEGFR2 (purified cytoplasmic domain KDR protein) (P35968 786-1356): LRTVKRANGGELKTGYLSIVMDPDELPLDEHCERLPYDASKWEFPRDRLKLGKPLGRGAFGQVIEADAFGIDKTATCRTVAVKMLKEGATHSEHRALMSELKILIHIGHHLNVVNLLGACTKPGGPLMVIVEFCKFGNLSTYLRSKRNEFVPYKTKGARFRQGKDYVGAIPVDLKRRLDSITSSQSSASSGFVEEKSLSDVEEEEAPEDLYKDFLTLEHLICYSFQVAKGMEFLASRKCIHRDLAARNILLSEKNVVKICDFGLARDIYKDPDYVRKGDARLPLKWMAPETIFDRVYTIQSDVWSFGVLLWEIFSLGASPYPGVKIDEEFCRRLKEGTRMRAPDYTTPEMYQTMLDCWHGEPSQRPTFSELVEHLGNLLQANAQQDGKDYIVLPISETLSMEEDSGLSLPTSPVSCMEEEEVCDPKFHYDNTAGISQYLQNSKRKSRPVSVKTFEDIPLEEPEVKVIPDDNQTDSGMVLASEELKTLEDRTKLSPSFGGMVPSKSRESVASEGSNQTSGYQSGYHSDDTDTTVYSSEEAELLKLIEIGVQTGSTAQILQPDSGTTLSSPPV
Sequence of PDGFRβ (purified cytoplasmic domain PDGFR-b protein) (P09619 554-1106): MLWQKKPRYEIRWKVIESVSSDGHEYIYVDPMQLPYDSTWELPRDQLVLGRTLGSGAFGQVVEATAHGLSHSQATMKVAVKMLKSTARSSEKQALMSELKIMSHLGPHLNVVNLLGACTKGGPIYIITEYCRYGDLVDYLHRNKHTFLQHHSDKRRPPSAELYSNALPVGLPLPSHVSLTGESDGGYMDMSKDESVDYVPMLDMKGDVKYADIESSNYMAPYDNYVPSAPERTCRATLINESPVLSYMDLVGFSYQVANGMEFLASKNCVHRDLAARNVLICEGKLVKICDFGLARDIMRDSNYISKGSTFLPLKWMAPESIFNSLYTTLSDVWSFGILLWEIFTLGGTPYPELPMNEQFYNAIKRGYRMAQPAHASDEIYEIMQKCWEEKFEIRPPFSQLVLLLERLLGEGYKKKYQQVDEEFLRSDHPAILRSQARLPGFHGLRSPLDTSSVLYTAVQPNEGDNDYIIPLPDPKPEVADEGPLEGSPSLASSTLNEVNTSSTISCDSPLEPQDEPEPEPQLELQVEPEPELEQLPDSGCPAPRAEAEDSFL

SMILES | IC50 [1] [nM] | IC50 [2] [nM] | IC50 (VEGFR1) [nM]
NC(=O)c1c(-c2ccc(N)cc2)nsc1NC(=O)NCCCN1CCCC1 [Example 67, 3-(4-Aminophenyl)-5-({[(3-pyrrolidin-1-ylpropyl)amino]carbonyl}amino)isothiazole-4-carboxamide] | > 1000 | – | –
NC(=O)c1c(-c2ccc([N+](=O)[O-])cc2)nsc1NC(=O)N1CCCC1=O [Example 45, 3-(4-Nitro-phenyl)-5-[(2-oxo-pyrrolidine-1-carbonyl)-amino]-isothiazole-4-carboxylic acid amide] | > 10000 | – | –
NC(=O)c1c(-c2ccc([N+](=O)[O-])cc2)nsc1NC(=O)NCCCN1CCOCC1 [Example 1, 5-({[(3-morpholin-4-ylpropyl)amino]carbonyl}amino)-3-(4-nitrophenyl)isothiazole-4-carboxamide] | > 10000 | > 10000 | > 10000
Cc1ccc(NC(=O)Nc2ccc(-c3nsc(N)c3C(N)=O)cc2)cc1 [Example 59, 5-Amino-3-[4-({[(4-methylphenyl)amino]carbonyl}amino)phenyl]isothiazole-4-carboxamide] | – | 60 | –
COCCCNC(=O)Nc1snc(-c2ccc(N)cc2)c1C(N)=O [Example 9, 3-(4-aminophenyl)-5-({[(3-methoxypropyl)amino]carbonyl}amino)isothiazole-4-carboxamide] | – | > 10000 | > 1000
Cc1cccc(NC(=O)Nc2ccc(-c3nsc(NC(=O)NCCCN4CCOCC4)c3C(N)=O)cc2)c1 [Example 5, 3-[4-({[(3-methylphenyl)amino]carbonyl}amino)phenyl]-5-({[(3-morpholin-4-ylpropyl)amino]carbonyl}amino)isothiazole-4-carboxamide] | – | 10 | –
NC(=O)c1c(-c2cccc(NC(=O)Nc3ccccc3)c2)nsc1N [Example 65, 5-Amino-3-{3-[(anilinocarbonyl)amino]phenyl}isothiazole-4-carboxamide] | > 10000 | > 1000 | –
Cc1ccc(F)c(NC(=O)Nc2ccc(-c3nsc(NC(=O)NCCCN4CCOCC4)c3C(N)=O)cc2)c1 [Example 4, 3-[4-({[(2-fluoro-5-methylphenyl)amino]carbonyl}amino)phenyl]-5-({[(3-morpholin-4-ylpropyl)amino]carbonyl}amino)isothiazole-4-carboxamide] | – | 47 | –
NC(=O)c1c(-c2ccc(N)cc2)nsc1N [Example 58, 5-Amino-3-(4-aminophenyl)isothiazole-4-carboxamide] | > 10000 | – | –
NC(=O)c1c(-c2ccc(NC(=O)c3cccc(C(F)(F)F)c3)cc2)nsc1NC(=O)NCCCN1CCOCC1 [Example 11, 5-({[(3-morpholin-4-ylpropyl)amino]carbonyl}amino)-3-(4-{[3-(trifluoromethyl)benzoyl]amino}phenyl)isothiazole-4-carboxamide] | – | > 1000 | > 1000
NC(=O)c1c(-c2cccc(N)c2)nsc1N [Example 62, 5-Amino-3-(3-aminophenyl)isothiazole-4-carboxamide] | > 10000 | – | –
Cc1ccc(NC(=O)Nc2ccc(-c3nsc(NC(=O)NCCCN4CCCC4)c3C(N)=O)cc2)cc1 [Example 68, 3-[4-({[(4-Methylphenyl)amino]carbonyl}amino)phenyl]-5-({[(3-pyrrolidin-1-ylpropyl)amino]carbonyl}amino)isothiazole-4-carboxamide] | – | 12 | –
NC(=O)c1c(-c2cccc([N+](=O)[O-])c2)nsc1N [Example 61, 5-Amino-3-(3-nitrophenyl)isothiazole-4-carboxamide] | > 10000 | – | –
NC(=O)c1c(-c2ccc(N)cc2)nsc1NC(=O)NCCCN1CCOCC1 [Example 2, 3-(4-aminophenyl)-5-({[(3-morpholin-4-ylpropyl)amino]carbonyl}amino)isothiazole-4-carboxamide] | – | > 10000 | –
Cc1ccc(F)c(NC(=O)Nc2ccc(-c3nsc(N)c3C(N)=O)cc2)c1 [Example 60, 5-Amino-3-[4-({[(2-fluoro-5-methylphenyl)amino]carbonyl}amino)phenyl]isothiazole-4-carboxamide] | – | 70 | –
Cc1ccc(F)c(NC(=O)Nc2ccc(-c3snc(NCCCN4CCOCC4)c3C(N)=O)cc2)c1 [Example 70, 5-[4-({[(2-Fluoro-5-methylphenyl)amino]carbonyl}amino)phenyl]-3-[(3-morpholin-4-ylpropyl)amino]isothiazole-4-carboxamide] | – | 70 | –
NC(=O)c1c(-c2cccc(NC(=O)c3cccc(C(F)(F)F)c3)c2)nsc1N [Example 64, 5-Amino-3-(3-{[3-(trifluoromethyl)benzoyl]amino}phenyl)isothiazole-4-carboxamide] | – | 844 | –
Cc1ccc(NC(=O)Nc2ccc(-c3nsc(NC(=O)NCCCO)c3C(N)=O)cc2)cc1 [Example 56, 5-({[(3-Hydroxypropyl)amino]carbonyl}amino)-3-[4-({[(4-methylphenyl)amino]carbonyl}amino)phenyl]isothiazole-4-carboxamide] | – | 13 | –
Cc1ccc(NC(=O)Nc2ccc(-c3nsc(NC(=O)NCCCN4CCOCC4)c3C(N)=O)cc2)cc1 [Example 7, 3-[4-({[(4-methylphenyl)amino]carbonyl}amino)phenyl]-5-({[(3-morpholin-4-ylpropyl)amino]carbonyl}amino)isothiazole-4-carboxamide] | – | 12 | –
Cc1ccc(F)c(NC(=O)Nc2ccc(-c3snc(N)c3C(N)=O)cc2)c1 [Example 69, 3-Amino-5-[4-({[(2-fluoro-5-methylphenyl)amino]carbonyl}amino)phenyl]isothiazole-4-carboxamide] | – | 48 | –
Cc1ccc(NC(=O)Nc2ccc(-c3nsc(NC(=O)NCCCC(=O)O)c3C(N)=O)cc2)cc1 [Example 48, 4-{[({4-(Aminocarbonyl)-3-[4-({[(4-methylphenyl)amino]carbonyl}amino)phenyl]isothiazol-5-yl}amino)carbonyl]amino}butanoic acid] | – | 10 | –
NC(=O)c1c(-c2ccc(NC(=O)Nc3ccccc3)cc2)nsc1NC(=O)NCCCN1CCOCC1 [Example 3, 3-{4-[(anilinocarbonyl)amino]phenyl}-5-({[(3-morpholin-4-ylpropyl)amino]carbonyl}amino)isothiazole-4-carboxamide] | – | 21 | –
NC(=O)c1c(-c2ccc(NC(=O)Nc3cc(C(F)(F)F)ccc3F)cc2)nsc1NC(=O)NCCCN1CCOCC1 [Example 6, 3-{4-[({[2-fluoro-5-(trifluoromethyl)phenyl]amino}carbonyl)amino]phenyl}-5-({[(3-morpholin-4-ylpropyl)amino]carbonyl}amino)isothiazole-4-carboxamide] | – | 24 | –
